# Measured values taken from patent US12410166B2, “Sulfonylamidine substituted compounds and their use as beta-lactamase inhibitors” (NINGXIA ACADEMY OF AGRICULTURE AND FORESTRY SCIENCES, priority 2021, dated 2025).
# Counter-ions that a name gives are not always drawn. Like-named read-outs stand apart in the source and are kept apart here.
# What was measured:
# Experiment in all cases: MIC by broth microdilution (antibacterial and synergistic activity)
# Type in all cases: cell-based
# [1] = test system: K. pneumoniae clinical isolate (strain 3, SHV-1); details: strain 3 (SHV-1); for MIC: Klebsiella pneumoniae
# Experimental: (§1) Compounds of the present invention alone, avibactam (AVI) alone, relebactam (REL) alone, meropenem (MER) alone, imipenem (IMI) alone, and as a combination of compounds of the present invention, or avibactam or relebactam with test antibiotic (meropenem or imipenem) was tested for antimicrobial activity by determining minimum inhibitory concentration (MIC, mg/L) using the broth microdilution method according to the guidelines of the Clinical Laboratories and Standards Institute (“Methods for Dilution Antimicrobial Susceptibility Tests for Bacterial that Grow Aerobically”, Approved standard, 7th ed., Clinical and Laboratories Standards Institute (CLSI) Document M7-A8, Wayne, Pa., USA, 2009). Meropenem or imipenem as a test antibiotic compound was dissolved in DMSO, and then diluted in microbial growth medium (Mueller-Hinton Broth II, cation adjusted) resulting in a final concentration range of 0.031-64 mg/L in serial two-fold dilution. In all cases the final DMSO concentration was less than 0.5%. Bacteria were added to 96-well microtitre plates containing the serial two-fold dilutions of the compounds; the final cell density was approximately 5×10^5 colony forming units/mL (CFU/mL). Plates were incubated at 37° C. for 18-24 hours and read visually. The MIC, i.e. the lowest concentration of the test compound that inhibited visible growth of the bacteria, was recorded. The same assay conditions were used when the compounds of present invention alone, avibactam or relebactam alone (as a control), and as a combination of the present invention each compound, or avibactam or relebactam with test meropenem or imipenem antibiotic compound was tested for minimum inhibitory concentration (MIC, mg/L). While test meropenem or imipenem was serially diluted as described above, a constant concentration of avibactam, or relebactam or the present invention each compound of 4 mg/L was used.
# (§2) Bacterial strains that were used to evaluate the antimicrobial activity using the MIC determination included but were not limited to E. coli clinical isolate (strain 1, TEM-1), E. coli 8739 (strain 2, CTX-M15), K. pneumoniae clinical isolate (strain 3, SHV-1), K. pneumoniae 700603 (strain 4, KPC-3, TEM-1), E. cloacae clinical isolate (strain 5, P99), E. cloacae 700323 (strain 6, AmpC), A. baumannii clinical isolate (strain 7, OXA-23, OXA-40), A. baumannii 19606 (strain 8, OXA-24), P. aeruginosa clinical isolate (strain 9, KPC-2), P. aeruginosa 9027 (strain 10, AmpC).
# [2] = test system: K. pneumoniae 700603 (strain 4, KPC-3, TEM-1); details: strain 4 (KPC-3, TEM-1); for MIC: Klebsiella pneumoniae
# Experimental: as §1, §2
# [3] = test system: E. coli 8739 (strain 2, CTX-M15); details: Escherichia coli, read-out: Antibacterial activity, MIC, inhibitor Alone
# Experimental: as §1, §2
# [4] = test system: P. aeruginosa 9027 (strain 10, AmpC); details: strain 10 (AmpC); for MIC: Pseudomonas aeruginosa
# Experimental: as §1, §2
# [5] = test system: E. cloacae 700323 (strain 6, AmpC); details: strain 6 (AmpC); for MIC: Enterobacter cloacae
# Experimental: as §1, §2
# [6] = test system: A. baumannii 19606 (strain 8, OXA-24); details: for MIC: Acinetobacter baumannii
# Experimental: as §1, §2
# [7] = test system: A. baumannii clinical isolate (strain 7, OXA-23, OXA-40); details: strain 7 (OXA-23/40); for MIC: Acinetobacter baumannii
# Experimental: as §1, §2
# [8] = test system: E. cloacae clinical isolate (strain 5, P99); details: strain 5 (P99); for MIC: Enterobacter cloacae
# Experimental: as §1, §2
# [9] = test system: P. aeruginosa clinical isolate (strain 9, KPC-2); details: strain 9 (KPC-2); for MIC: Pseudomonas aeruginosa
# Experimental: as §1, §2
# [10] = test system: E. coli clinical isolate (strain 1, TEM-1); details: strain 1 (TEM-1); for MIC: Escherichia coli
# Experimental: as §1, §2
# [11] = compound alone, no antibiotic, read-out: Antibacterial activity, MIC, inhibitor Alone
# [12] = read-out: Antibacterial activity, MIC, inhibitor Alone
# [13] = imipenem alone, read-out: MIC, IMI Alone
# [14] = meropenem alone, read-out: MIC, MER Alone
smiles,measurement,setting,value
"N=C(NS(=O)(=O)C1CC1)[C@@H]1CC[C@@H]2CN1C(=O)N2OS(=O)(=O)[O-].[Na+] [Ex. 6, Sodium (2S,5R)-2-(N-(cyclopropylsulfonyl)carbamimidoyl)-7-oxo-1,6-diazabicyclo[3.2.1]octan-6-yl sulfate]",MIC,[1]; [11],> 64 mg/L
same,MIC,[2]; [11],> 64 mg/L
same,MIC,[3],> 64 mg/L
same,MIC,[4]; [11],> 64 mg/L
same,MIC,[5]; [11],> 64 mg/L
same,MIC,[6]; [12],> 64 mg/L
same,MIC,[7]; [11],> 64 mg/L
same,MIC,[8]; [11],> 64 mg/L
same,MIC,[9]; [11],> 64 mg/L
same,MIC,[10]; [11],> 64 mg/L
"N=C(NS(=O)(=O)c1ccc(C(F)(F)F)cn1)[C@@H]1CC[C@@H]2CN1C(=O)N2OS(=O)(=O)O [Ex. 20, (2S,5R)-7-oxo-2-(N-((5-(trifluoromethyl)pyridin-2-yl)sulfonyl)carbamimidoyl)-1,6-diazabicyclo[3.2.1]octan-6-yl hydrogen sulfate]",MIC,[1]; [11],> 64 mg/L
same,MIC,[2]; [11],> 64 mg/L
same,MIC,[3],> 64 mg/L
same,MIC,[4]; [11],> 64 mg/L
same,MIC,[5]; [11],> 64 mg/L
same,MIC,[6]; [12],> 64 mg/L
same,MIC,[7]; [11],> 64 mg/L
same,MIC,[8]; [11],> 64 mg/L
same,MIC,[9]; [11],> 64 mg/L
same,MIC,[10]; [11],> 64 mg/L
"C[C@@H](O)[C@H]1C(=O)N2C(C(=O)O)=C(SCCN=CN)C[C@H]12 [IMI, imipenem, reference compound]",MIC,[1]; [13],2 mg/L
same,MIC,[2]; [13],4 mg/L
same,MIC,[4]; [13],4 mg/L
same,MIC,[5]; [13],0.5 mg/L
same,MIC,"[6]; read-out: MIC, IMI Alone",2 mg/L
same,MIC,[7]; [13],0.5 mg/L
same,MIC,[8]; [13],4 mg/L
same,MIC,[9]; [13],2 mg/L
same,MIC,[10]; [13],0.5 mg/L
"Cn1cnc(S(=O)(=O)NC(=N)[C@@H]2CC[C@@H]3CN2C(=O)N3OS(=O)(=O)[O-])c1.[Na+] [Ex. 7, Sodium (2S,5R)-2-(N-((1-methyl-1H-imidazol-4-yl)sulfonyl)carbamimidoyl)-7-oxo-1,6-diazabicyclo[3.2.1]octan-6-yl sulfate]",MIC,[1]; [11],> 64 mg/L
same,MIC,[2]; [11],> 64 mg/L
same,MIC,[3],> 64 mg/L
same,MIC,[4]; [11],> 64 mg/L
same,MIC,[5]; [11],> 64 mg/L
same,MIC,[6]; [12],> 64 mg/L
same,MIC,[7]; [11],> 64 mg/L
same,MIC,[8]; [11],> 64 mg/L
same,MIC,[10]; [11],> 64 mg/L
"C[C@@H](O)[C@H]1C(=O)N2C(C(=O)O)=C(S[C@@H]3CN[C@H](C(=O)N(C)C)C3)[C@H](C)[C@H]12 [MER, meropenem, reference compound]",MIC,[1]; [14],4 mg/L
same,MIC,[2]; [14],2 mg/L
same,MIC,[4]; [14],4 mg/L
same,MIC,[5]; [14],4 mg/L
same,MIC,"[6]; read-out: MIC, MER Alone",2 mg/L
same,MIC,[7]; [14],4 mg/L
same,MIC,[8]; [14],4 mg/L
same,MIC,[9]; [14],4 mg/L
same,MIC,[10]; [14],4 mg/L
"COC(=O)CS(=O)(=O)NC(=N)[C@@H]1CC[C@@H]2CN1C(=O)N2OS(=O)(=O)[O-].[Na+] [Ex. 2, Sodium (2S,5R)-2-(N-((2-methoxy-2-oxoethyl)sulfonyl)caramimidoyl)-7-oxo-1,6-diazabicyclo[3.2.1]octan-6-yl sulfate]",MIC of imipenem in combination with the inhibitor (IMI + inhibitor),[1]; inhibitor at constant 4 mg/L,0.25 mg/L
same,MIC of meropenem in combination with the inhibitor (MER + inhibitor),[1]; inhibitor at constant 4 mg/L,0.125 mg/L
same,MIC of imipenem in combination with the inhibitor (IMI + inhibitor),[2]; inhibitor at constant 4 mg/L,<0.125 mg/L
same,MIC of meropenem in combination with the inhibitor (MER + inhibitor),[2]; inhibitor at constant 4 mg/L,<0.125 mg/L
same,MIC of imipenem in combination with the inhibitor (IMI + inhibitor),[4]; inhibitor at constant 4 mg/L,1.0 mg/L
same,MIC of meropenem in combination with the inhibitor (MER + inhibitor),[4]; inhibitor at constant 4 mg/L,<0.125 mg/L
same,MIC of imipenem in combination with the inhibitor (IMI + inhibitor),[5]; inhibitor at constant 4 mg/L,0.5 mg/L
same,MIC of meropenem in combination with the inhibitor (MER + inhibitor),[5]; inhibitor at constant 4 mg/L,<0.125 mg/L
same,MIC of meropenem in combination with the inhibitor (MER + inhibitor),"[6]; strain 8 (OXA-24), inhibitor at constant 4 mg/L",0.5 mg/L
same,MIC of imipenem in combination with the inhibitor (IMI + inhibitor),[7]; inhibitor at constant 4 mg/L,0.25 mg/L
same,MIC of meropenem in combination with the inhibitor (MER + inhibitor),[7]; inhibitor at constant 4 mg/L,<0.125 mg/L
same,MIC of imipenem in combination with the inhibitor (IMI + inhibitor),[8]; inhibitor at constant 4 mg/L,<0.125 mg/L
same,MIC of meropenem in combination with the inhibitor (MER + inhibitor),[8]; inhibitor at constant 4 mg/L,<0.125 mg/L
same,MIC of imipenem in combination with the inhibitor (IMI + inhibitor),[9]; inhibitor at constant 4 mg/L,1.0 mg/L
same,MIC of meropenem in combination with the inhibitor (MER + inhibitor),[9]; inhibitor at constant 4 mg/L,0.125 mg/L
same,MIC of imipenem in combination with the inhibitor (IMI + inhibitor),[10]; inhibitor at constant 4 mg/L,<0.125 mg/L
same,MIC of meropenem in combination with the inhibitor (MER + inhibitor),[10]; inhibitor at constant 4 mg/L,<0.125 mg/L
